Test results taken from publication PMC2725291, “Genetic and Molecular Basis of Individual Differences in Human Umami Taste Perception” (PLoS ONE, 2009).

Legend:
[1] = molecular target: T1, TAS1R1-12H-372A/TAS1R3 -757R (Homo sapiens, UniProt Q7RTX0+Q7RTX1, C757R/Q12H); assay: Ca2+ imaging in HEK293 cells, Q12H amino acid substitution of TAS1R1; assay type: cell-based; settings: vs. TAS1R1-12Q-372A/TAS1R3-757R; Figure S3
T1 construct: expressed in transfected cells; host or cells: HEK293
T1 sequence (Q7RTX1 21-841): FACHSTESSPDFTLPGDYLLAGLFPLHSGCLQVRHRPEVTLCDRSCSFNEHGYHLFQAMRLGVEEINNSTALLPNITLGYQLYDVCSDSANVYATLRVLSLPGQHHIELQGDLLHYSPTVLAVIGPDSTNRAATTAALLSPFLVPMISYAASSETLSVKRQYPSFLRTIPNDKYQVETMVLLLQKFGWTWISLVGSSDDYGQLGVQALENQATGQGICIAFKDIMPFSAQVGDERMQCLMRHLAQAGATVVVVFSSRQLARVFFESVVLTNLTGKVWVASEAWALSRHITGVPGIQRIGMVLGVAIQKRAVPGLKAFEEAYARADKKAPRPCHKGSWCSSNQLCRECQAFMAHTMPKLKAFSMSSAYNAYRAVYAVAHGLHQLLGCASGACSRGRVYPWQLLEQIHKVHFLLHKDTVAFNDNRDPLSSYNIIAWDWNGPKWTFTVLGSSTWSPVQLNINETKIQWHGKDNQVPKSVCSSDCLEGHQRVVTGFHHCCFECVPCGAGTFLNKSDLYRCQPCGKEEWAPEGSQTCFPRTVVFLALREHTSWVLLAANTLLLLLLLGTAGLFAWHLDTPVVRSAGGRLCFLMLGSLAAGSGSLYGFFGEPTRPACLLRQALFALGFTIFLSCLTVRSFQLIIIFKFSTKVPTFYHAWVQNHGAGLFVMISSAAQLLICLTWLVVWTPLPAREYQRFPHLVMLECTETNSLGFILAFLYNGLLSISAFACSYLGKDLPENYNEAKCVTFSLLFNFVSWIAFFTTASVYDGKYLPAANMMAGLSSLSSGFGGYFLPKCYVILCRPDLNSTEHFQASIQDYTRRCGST
T1 sequence (Q7RTX0 21-852 C757R): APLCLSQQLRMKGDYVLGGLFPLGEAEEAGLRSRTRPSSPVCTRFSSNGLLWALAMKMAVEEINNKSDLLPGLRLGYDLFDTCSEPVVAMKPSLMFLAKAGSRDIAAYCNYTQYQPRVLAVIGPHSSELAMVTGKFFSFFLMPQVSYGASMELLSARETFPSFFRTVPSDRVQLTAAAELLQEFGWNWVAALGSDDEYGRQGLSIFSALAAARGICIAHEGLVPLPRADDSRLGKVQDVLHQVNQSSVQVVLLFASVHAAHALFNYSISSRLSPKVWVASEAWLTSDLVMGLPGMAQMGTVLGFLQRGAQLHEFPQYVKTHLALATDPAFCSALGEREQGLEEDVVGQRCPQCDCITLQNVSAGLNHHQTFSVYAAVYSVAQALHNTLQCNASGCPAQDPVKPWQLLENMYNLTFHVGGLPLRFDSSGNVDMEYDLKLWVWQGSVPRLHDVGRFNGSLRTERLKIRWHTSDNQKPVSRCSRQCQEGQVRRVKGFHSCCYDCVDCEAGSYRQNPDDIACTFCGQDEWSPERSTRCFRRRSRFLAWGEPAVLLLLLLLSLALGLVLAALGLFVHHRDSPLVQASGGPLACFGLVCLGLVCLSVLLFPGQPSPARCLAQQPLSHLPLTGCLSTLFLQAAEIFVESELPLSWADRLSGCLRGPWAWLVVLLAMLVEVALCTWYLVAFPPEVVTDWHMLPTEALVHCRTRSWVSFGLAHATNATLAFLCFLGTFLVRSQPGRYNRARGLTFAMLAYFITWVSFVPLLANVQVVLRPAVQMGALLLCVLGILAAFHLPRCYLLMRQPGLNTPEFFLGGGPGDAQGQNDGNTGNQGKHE
Description: Intronless human TAS1Rs and Gαl6 expression constructs were generated in the pEF-DEST51 Gateway vector (Invitrogen) by genomic DNA-based methods. To subclone each gene into the vector, a Kozak cassette was introduced at the 5′ end before the start codon. Gαl6 chimeras were generated by PCR with mutagenic primers. The carboxyl-terminal tail of Gαl6, five-residue (EINLL) was replaced by its counterpart from Gαi3 (ECGLY; Gα16-i3), Gαgust (DCGLF; Gα16-gust), and Gα16-gust44 was generated as described. The integrity of all DNA constructs was confirmed by DNA sequencing. Point mutations in TAS1Rs were made using the same overlapping PCR strategy with mutagenic primers. […]
HEK293 cells were cultured at 37°C under a humidified atmosphere containing 5% CO2 in Dulbecco's modified Eagle's medium supplemented with 10% fetal bovine serum. […] The transfection efficiencies were estimated by visualizing DsRed fluorescence (data not shown) or by immunocytochemistry of TAS1R3, and were typically 50∼55% (Figure S4). […]
Another imaging system, FlexStation II (Molecular Devices) was used for TAS1R mutant analysis. […] Fluorescence changes (excitation at 485 nm, emission at 525 nm, and cutoff at 515 nm) were monitored at 2 sec intervals; 50 µl of HBSS supplemented with 2×tastants were added at 30 sec, and scanning was continued for an additional 120 sec. […]

[2] = tested on: 254 Japanese subjects; parameters: method as in PMID 11839608; settings: humans; cited from earlier work

N[C@@H](CCC(=O)O)C(=O)[O-].[Na+] [MSG, monosodium glutamate]
effect of the Q12H amino acid mutation of TAS1R1 on responses [1]: did not affect | difference of taste thresholds between taster and hypotaster groups [2]: about 5 fold
